# Measured values: ChEMBL document CHEMBL1201862, “PubChem BioAssay data set” (2004)
# Active and inactive are the calls of the source.
# What was measured:
# [1] = target: T1, Cytochrome P450 1A2 (Homo sapiens, UniProt P05177);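 note: PubChem cytochrome P450 panel assay, CYP1A2 panel member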
# T1 sequence (P05177 whole entry): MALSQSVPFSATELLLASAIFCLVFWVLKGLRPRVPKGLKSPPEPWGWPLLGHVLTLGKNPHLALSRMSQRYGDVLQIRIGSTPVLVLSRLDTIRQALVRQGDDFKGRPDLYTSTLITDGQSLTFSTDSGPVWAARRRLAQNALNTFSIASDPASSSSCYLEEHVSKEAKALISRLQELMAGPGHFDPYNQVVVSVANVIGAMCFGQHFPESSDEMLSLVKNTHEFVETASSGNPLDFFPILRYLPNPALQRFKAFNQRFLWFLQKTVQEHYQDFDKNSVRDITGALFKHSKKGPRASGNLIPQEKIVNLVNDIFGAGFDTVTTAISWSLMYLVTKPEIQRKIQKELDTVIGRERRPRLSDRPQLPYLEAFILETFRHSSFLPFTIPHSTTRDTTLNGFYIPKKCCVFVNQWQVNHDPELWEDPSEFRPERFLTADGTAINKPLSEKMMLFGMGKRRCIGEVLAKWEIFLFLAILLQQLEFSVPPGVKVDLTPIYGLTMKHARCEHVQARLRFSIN
# [2] = Luminescence Cell-Based Dose Retest to Confirm Inhibitors of Cancer Stem Cells. [Related pubchem assays (depositor defined):AID2717, AID2721]; type: functional; details: Homo sapiens
# [3] = cytotoxicity in HMLE control line with eGFP shRNA, dose response, counter-screen for HMLE_sh_ECad selective toxicity project, cell-based, HMLE_sh_eGFP, luminescence (AID 463074); type: functional, Homo sapiens;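 note: HMLE human mammary epithelial cells expressing control shRNA against eGFP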
# [4] = target: Large T antigen (Simian virus 40, UniProt P03070); type: functional, Betapolyomavirus macacae;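 note: Confirmatory-stage PubChem screen for compounds that inhibit SV40 T antigen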
# [5] = target: Lysine-specific demethylase 4C (Homo sapiens, UniProt Q9H3R0); assay: GASC-1 (JMJD2C) histone demethylase inhibitors, dose response, biochemical, DELFIA europium, cherry-picked samples (AID 488835); type: functional
# [6] = target: Genome polyprotein (dengue virus type 2, UniProt P29990); assay: Dengue-2 NS5 methyltransferase inhibitors, primary screen, biochemical, confirmation dose response (AID 588689); type: functional
# [7] = target: T2, Polyadenylate-binding protein 1 (Homo sapiens, UniProt P11940); assay: PABP1 MLLE–PAM2 interaction inhibitors, dose response, miRNA deadenylation inhibitor project, biochemical, fluorescence polarization, Cy5-PAM2 peptide, secondary (AID 602260); type: functional; details: read-out: IC50_Mean
# [8] = target: T2, Polyadenylate-binding protein 1; assay: PABP1 MLLE–PAM2 binding inhibitor potency, dose response, biochemical, fluorescence polarization, FITC-PAM2 peptide (AID 602259); type: functional; details: read-out: IC50_Mean
# [9] = target: T3, Apoptotic protease-activating factor 1 (Homo sapiens, UniProt O14727); assay: activation of Apaf-1 mediated apoptosis – fluorescent, uHTS hits, dose response (AID 588554); type: functional
# T3 sequence (O14727 whole entry): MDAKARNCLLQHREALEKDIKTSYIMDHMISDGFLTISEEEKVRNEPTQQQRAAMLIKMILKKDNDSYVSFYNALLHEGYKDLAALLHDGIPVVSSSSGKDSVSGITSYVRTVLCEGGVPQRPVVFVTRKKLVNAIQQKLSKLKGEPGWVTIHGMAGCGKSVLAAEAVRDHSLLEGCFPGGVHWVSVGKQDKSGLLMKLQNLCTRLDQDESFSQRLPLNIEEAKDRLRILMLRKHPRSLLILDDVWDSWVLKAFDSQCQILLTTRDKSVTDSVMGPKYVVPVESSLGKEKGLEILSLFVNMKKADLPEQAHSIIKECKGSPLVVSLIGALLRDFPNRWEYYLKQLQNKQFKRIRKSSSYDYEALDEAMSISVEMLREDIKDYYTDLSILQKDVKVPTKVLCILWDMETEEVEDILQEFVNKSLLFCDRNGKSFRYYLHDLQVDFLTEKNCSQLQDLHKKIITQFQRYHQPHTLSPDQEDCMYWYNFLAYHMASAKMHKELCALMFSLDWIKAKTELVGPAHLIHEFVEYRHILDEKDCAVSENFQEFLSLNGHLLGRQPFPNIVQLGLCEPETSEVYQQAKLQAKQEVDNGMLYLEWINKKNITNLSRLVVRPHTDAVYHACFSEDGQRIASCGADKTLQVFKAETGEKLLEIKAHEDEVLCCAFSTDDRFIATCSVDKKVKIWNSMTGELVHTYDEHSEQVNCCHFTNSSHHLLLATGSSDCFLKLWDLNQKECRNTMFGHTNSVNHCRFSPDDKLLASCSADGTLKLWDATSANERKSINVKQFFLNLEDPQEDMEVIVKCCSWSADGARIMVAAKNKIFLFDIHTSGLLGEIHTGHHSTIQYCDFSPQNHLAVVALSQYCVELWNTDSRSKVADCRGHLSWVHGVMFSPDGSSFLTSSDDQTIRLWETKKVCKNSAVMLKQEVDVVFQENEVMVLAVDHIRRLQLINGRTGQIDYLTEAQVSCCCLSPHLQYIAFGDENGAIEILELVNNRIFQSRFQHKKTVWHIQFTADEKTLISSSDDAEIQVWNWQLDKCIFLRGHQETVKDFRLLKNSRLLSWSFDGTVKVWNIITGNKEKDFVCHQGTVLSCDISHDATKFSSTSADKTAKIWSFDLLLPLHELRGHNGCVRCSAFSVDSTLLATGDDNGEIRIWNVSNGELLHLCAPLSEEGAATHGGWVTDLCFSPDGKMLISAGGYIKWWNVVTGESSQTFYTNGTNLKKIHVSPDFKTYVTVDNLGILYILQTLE
# [10] = target: Cytochrome P450 2C19 (Homo sapiens, UniProt P33261); assay: Cytochrome panel assay with activity outcomes. Panel member name: p450-cyp2c19 Compounds with AC50 equal or less than 10 uM are considered active; type: functional
# [11] = target: Cytochrome P450 2D6 (Homo sapiens, UniProt P10635);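 note: CYP2D6 member of a cytochrome P450 panel assay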
# [12] = target: T4, Mannose-6-phosphate isomerase (Homo sapiens, UniProt P34949); assay: PMI enzyme inhibitors, confirmation, biochemical, fluorescence intensity (AID 1535)
# T4 sequence (P34949 whole entry): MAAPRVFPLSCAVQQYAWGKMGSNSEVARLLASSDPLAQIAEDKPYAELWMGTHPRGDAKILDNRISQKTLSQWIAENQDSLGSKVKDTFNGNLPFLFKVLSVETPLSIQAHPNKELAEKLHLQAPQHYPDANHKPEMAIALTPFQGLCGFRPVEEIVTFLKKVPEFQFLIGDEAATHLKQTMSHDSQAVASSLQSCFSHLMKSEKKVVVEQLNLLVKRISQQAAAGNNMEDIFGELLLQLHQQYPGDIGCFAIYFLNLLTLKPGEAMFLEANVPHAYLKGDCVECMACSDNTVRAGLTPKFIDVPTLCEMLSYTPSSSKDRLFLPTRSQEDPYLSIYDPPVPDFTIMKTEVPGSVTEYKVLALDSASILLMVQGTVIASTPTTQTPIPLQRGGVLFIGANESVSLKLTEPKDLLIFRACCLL
# [13] = target: Phosphomannomutase 2 (Homo sapiens, UniProt O15305); assay: Counter screen SAR assay for PMM2 inhibitors via a fluorescence intensity assay. [Related pubchem assays (depositor defined):AID1545, AID1574]
# [14] = cells; type: functional, cell-based
# [15] = cells; type: functional, cell-based; remark: listed apart in the source
# [16] = target: T5, Cysteine protease ATG4B (Homo sapiens, UniProt Q9Y4P1); type: functional;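 note: Fluorescence-based dose-response confirmation assay measuring inhibition of ATG4B activity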
# T5 sequence (Q9Y4P1 whole entry): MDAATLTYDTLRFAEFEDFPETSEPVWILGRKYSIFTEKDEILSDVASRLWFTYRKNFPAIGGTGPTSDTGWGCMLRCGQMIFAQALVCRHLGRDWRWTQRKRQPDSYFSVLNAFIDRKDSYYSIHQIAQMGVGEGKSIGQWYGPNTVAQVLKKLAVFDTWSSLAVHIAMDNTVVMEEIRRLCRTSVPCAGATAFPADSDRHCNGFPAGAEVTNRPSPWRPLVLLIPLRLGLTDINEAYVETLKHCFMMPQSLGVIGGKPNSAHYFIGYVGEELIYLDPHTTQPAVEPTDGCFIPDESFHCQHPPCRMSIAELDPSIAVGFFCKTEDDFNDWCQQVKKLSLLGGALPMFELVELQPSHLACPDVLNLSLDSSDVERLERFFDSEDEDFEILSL
# [17] = target: T6, Phospholipase A2 (Homo sapiens, UniProt P04054); assay: PLA2 enzyme inhibitors, dose response, counter-screen for ATG4B inhibitor project, biochemical, set 2 (AID 588586); type: functional
# [18] = target: T6, Phospholipase A2; type: functional
# [19] = target: T5, Cysteine protease ATG4B; assay: ATG4B protease inhibitors, dose response, biochemical, fluorescence, set 2 (AID 588584); type: functional
# [20] = target: Keap1/Nrf2 (Homo sapiens, UniProt Q14145); assay: Keap1-Nrf2 protein-protein interaction inhibitors, dose response, biochemical, fluorescence polarization, cherry-picked samples (AID 588683)
# [21] = target: Intestinal-type alkaline phosphatase (Mus musculus, UniProt P24822); assay: PubChem AID 488874; type: functional
# [22] = target: T7, Intestinal-type alkaline phosphatase (Homo sapiens, UniProt P09923); assay: human IAP inhibitors, dose response, biochemical, luminescent, uHTS hits, set 2 (AID 488793); type: functional
# [23] = target: T7, Intestinal-type alkaline phosphatase; assay: Dose Response confirmation of uHTS hits from a small molecule inhibitors of human intestinal alkaline phosphatase via a luminescent assay. [Related pubchem assays (depositor defined):AID2544, AID2574]; type: functional
# [24] = target: T8, Alkaline phosphatase, tissue-nonspecific isozyme (Homo sapiens, UniProt P05186); assay: inhibition of tissue-nonspecific alkaline phosphatase – biochemical, dose response (AID 488882); type: functional
# T8 sequence (P05186 whole entry): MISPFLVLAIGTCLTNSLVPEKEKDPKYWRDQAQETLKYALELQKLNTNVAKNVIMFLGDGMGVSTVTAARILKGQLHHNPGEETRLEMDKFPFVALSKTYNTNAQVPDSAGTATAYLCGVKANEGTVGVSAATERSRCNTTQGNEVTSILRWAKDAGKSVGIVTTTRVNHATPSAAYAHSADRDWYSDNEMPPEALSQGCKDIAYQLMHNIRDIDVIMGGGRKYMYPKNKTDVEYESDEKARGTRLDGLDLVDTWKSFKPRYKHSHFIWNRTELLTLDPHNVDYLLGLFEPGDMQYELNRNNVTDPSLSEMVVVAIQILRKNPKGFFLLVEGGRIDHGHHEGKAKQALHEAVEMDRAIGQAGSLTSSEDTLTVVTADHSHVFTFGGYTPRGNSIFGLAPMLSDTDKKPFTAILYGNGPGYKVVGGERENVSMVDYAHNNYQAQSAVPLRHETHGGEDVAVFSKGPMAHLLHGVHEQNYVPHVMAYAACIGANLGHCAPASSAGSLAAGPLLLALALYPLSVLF
# [25] = target: Exodeoxyribonuclease V (Escherichia coli (strain K12), UniProt P04993+P07648+P08394); assay: E. coli RecBCD inhibitors, dose response, counter-screen for AddAB inhibitor project, absorbance, V66 E. coli, mutant T4 phage (AID 492957); type: functional, cell-based, Escherichia coli str. K-12 substr. MG1655
# [26] = Counterscreen for AddAB inhibitors: absorbance-based bacterial cell-based high throughput dose response assay for inhibitors of bacterial viability. [Related pubchem assays (depositor defined):AID435030, AID449728, AID449731, AID488942, AID488955, AID488956]; type: functional
# T2 sequence (P11940 whole entry): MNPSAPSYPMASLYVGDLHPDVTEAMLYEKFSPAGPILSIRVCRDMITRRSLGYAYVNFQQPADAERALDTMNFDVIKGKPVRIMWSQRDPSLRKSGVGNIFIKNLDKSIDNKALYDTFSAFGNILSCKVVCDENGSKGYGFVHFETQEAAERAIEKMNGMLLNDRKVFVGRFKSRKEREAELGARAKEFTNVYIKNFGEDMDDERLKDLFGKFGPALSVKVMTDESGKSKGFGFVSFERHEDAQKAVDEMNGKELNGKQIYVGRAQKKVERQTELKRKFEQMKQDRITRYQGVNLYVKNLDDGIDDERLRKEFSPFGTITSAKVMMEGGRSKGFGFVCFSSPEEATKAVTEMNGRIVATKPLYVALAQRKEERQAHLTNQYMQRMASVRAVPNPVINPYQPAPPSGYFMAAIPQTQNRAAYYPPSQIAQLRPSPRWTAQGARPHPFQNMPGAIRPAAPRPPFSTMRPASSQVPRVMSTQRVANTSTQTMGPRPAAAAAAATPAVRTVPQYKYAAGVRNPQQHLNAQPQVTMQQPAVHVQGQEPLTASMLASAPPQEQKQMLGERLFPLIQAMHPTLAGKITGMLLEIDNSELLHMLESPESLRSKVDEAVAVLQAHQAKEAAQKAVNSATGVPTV
# T7 sequence (P09923 whole entry): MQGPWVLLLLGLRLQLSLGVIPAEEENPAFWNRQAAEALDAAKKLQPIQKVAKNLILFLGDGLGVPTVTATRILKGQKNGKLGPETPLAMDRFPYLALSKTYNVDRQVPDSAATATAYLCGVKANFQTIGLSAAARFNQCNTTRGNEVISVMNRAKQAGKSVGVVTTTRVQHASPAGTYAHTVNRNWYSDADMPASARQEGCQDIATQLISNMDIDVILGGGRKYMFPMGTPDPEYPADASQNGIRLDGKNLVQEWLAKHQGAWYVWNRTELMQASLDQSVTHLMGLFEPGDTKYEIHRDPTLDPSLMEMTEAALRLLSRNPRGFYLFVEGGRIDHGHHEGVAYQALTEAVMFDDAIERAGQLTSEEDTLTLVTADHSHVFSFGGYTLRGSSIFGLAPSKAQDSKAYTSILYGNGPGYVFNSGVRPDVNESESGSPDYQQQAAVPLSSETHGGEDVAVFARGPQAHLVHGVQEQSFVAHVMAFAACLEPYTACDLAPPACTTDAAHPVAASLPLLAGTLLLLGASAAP
# T6 sequence (P04054 whole entry): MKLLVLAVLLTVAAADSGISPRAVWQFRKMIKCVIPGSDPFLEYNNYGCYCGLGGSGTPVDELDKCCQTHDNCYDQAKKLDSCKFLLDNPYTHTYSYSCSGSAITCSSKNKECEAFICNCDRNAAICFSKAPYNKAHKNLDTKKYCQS
# Chain of Genome polyprotein (P29990 2492-3391 limits assumed): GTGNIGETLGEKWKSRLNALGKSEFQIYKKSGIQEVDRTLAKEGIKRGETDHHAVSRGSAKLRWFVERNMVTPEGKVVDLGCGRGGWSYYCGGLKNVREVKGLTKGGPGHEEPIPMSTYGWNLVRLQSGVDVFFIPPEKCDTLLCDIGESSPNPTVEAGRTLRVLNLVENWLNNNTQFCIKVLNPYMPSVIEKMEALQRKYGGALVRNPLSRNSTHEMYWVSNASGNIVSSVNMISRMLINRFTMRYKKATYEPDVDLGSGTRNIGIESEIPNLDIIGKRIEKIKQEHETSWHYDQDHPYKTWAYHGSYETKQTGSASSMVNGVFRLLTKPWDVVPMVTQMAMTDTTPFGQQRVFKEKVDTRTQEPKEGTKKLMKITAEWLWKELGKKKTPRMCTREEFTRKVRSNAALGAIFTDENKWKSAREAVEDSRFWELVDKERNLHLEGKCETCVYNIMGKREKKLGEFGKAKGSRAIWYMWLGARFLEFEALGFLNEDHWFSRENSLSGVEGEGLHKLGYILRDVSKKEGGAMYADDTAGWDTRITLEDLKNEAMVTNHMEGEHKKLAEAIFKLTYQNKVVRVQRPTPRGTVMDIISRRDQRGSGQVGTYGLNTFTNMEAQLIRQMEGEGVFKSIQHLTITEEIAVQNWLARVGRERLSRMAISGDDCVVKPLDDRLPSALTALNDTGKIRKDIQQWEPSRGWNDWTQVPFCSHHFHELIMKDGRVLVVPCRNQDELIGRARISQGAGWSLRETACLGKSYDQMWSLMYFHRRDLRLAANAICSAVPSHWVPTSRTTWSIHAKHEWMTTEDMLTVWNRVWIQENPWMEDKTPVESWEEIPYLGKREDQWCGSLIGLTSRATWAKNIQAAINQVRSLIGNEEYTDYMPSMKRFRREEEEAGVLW
# Chain of Cytochrome P450 2D6 (P10635 whole entry): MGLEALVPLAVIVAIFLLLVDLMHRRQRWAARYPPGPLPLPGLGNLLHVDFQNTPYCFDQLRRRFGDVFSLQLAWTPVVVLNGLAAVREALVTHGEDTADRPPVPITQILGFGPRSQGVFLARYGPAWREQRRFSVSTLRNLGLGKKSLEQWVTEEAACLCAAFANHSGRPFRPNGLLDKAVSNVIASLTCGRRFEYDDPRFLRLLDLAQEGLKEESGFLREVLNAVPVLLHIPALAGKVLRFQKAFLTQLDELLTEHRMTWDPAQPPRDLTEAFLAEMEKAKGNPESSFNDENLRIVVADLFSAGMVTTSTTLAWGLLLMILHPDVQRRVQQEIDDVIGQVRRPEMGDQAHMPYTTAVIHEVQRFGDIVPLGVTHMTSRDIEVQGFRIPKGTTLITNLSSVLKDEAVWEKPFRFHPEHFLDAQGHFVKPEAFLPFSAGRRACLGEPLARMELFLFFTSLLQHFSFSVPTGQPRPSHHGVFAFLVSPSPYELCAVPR
# Chain of Phosphomannomutase 2 (O15305 whole entry): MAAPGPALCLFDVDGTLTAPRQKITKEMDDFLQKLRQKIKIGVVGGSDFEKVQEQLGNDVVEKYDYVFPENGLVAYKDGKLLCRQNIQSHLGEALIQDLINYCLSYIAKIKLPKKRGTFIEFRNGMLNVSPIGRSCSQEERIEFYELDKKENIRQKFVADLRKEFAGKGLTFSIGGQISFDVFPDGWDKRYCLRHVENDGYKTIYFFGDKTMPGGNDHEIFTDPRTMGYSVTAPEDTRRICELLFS
# Chain of Lysine-specific demethylase 4C (Q9H3R0 whole entry): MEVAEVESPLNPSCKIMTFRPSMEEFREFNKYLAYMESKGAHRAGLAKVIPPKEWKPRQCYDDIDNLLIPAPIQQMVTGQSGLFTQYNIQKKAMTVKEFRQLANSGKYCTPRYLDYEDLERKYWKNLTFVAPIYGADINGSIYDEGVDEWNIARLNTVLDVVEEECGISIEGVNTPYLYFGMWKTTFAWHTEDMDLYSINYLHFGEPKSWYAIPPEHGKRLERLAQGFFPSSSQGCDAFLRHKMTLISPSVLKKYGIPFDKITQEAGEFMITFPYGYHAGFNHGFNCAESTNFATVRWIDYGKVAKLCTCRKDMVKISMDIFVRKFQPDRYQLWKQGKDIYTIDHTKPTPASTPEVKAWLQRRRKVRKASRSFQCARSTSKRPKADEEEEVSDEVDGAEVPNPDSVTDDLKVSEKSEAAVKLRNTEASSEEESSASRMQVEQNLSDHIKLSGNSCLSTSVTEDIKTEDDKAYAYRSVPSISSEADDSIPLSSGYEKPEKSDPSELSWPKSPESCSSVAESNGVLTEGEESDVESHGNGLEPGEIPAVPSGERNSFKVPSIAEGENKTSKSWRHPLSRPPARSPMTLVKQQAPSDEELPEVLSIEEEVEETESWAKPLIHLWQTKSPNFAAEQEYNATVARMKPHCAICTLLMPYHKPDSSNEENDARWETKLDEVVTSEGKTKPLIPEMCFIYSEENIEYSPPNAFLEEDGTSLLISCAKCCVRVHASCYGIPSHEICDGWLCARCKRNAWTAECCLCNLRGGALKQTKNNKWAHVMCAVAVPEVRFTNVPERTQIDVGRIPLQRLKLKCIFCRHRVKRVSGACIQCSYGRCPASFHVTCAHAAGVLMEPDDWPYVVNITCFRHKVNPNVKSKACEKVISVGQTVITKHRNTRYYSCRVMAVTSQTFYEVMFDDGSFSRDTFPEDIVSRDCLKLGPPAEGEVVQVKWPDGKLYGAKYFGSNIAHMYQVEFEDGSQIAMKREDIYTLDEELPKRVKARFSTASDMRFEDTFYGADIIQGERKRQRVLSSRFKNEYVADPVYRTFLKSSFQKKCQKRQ
# Chain of Intestinal-type alkaline phosphatase (Mus musculus, UniProt P24822) (P24822 whole entry): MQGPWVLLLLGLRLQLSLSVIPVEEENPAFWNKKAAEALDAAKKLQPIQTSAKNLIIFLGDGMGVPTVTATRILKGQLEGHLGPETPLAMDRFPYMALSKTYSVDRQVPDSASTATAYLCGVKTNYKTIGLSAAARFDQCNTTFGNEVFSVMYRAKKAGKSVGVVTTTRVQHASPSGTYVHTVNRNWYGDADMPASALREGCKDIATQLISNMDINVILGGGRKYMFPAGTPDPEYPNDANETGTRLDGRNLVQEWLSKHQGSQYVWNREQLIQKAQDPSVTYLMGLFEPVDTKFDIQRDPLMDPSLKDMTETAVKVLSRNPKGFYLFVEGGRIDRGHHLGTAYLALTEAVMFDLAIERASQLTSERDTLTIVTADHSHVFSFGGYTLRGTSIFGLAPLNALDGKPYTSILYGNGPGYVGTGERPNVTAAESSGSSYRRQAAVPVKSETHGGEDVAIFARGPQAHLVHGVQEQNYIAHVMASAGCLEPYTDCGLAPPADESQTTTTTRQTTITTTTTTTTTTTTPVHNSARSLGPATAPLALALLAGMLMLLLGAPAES
smiles,measurement,setting,value
O=S(=O)(c1ccccc1)N1CCC[C@@]2(CCN(Cc3cc(C(F)(F)F)cc(C(F)(F)F)c3)C2)C1,AC50,[1],inconclusive
O=C(Nc1ccc(OCc2ccccc2)cc1)c1cccs1,AC50,[2],1.98 µM (active)
same,AC50,[3],62.6 µM (active)
O=C1NC(=O)C(=Cc2csc3ccccc23)C(=O)N1,IC50,[4],59.7 µM (active)
same,AC50,[5],6.34 µM (active)
same,IC50,[6],26.9 µM (active)
same,IC50,[7],> 66 µM (inactive)
same,IC50,[8],> 66 µM (inactive)
CC(/C=C\c1cccnc1)=C/C(=O)O,EC50,[9],11 µM (active)
CC(CC(=O)O)(CC(=O)O)C(=O)O,AC50,[10],inconclusive
same,AC50,[11],inconclusive
COc1ccc(C)cc1/N=c1\ssnc1Cl,IC50,[12],22.5 µM (active)
same,IC50,[13],> 100 µM (inactive)
Cc1cc(/C=N/n2c(COc3ccccc3)nc3ccccc3c2=O)c(O)c([N+](=O)[O-])c1,EC50,[14],> 350 µM (not active)
same,EC50,[15],31.7 µM (active)
same,AC50,[2],20.9 µM (active)
same,IC50,[16],17.2 µM (active)
same,IC50,[17],10.5 µM (active)
same,IC50,[18],13.1 µM (active)
same,IC50,[19],22.8 µM (inactive)
NC(=O)c1cc2ccc(O)cc2o/c1=N\Cc1ccccc1,AC50,[20],18.7 µM (active)
C/C(=N/Nc1ccccc1[N+](=O)[O-])c1ccc([N+](=O)[O-])cc1,IC50,[21],> 100 µM (inactive)
same,IC50,[22],77.3 µM (active)
same,IC50,[23],69.6 µM (inactive)
same,IC50,[24],> 100 µM (inactive)
O=C1CCC(=O)N(O)CCCCCNC(=O)CCC(=O)N(O)CCCCNC(=O)CCC(=O)N(O)CCCCCN1 [DESMETHYLENYLNOCARDAMINE],IC50,[25],> 119 µM (inactive)
same,IC50,[26],> 119 µM (inactive)
